Assay results: patent publication US20240002361A1, “COMPOSITIONS AND METHODS FOR BLOCKING NEUROPILIN RECEPTOR 1 FOR THE TREATMENT OF PAIN AND PREVENTION OF VIRAL ENTRY” (Arizona Board of Regents on Behalf of the University of …, priority 2020, published 2024)
≈ marks a conversion by molar mass, not a printed value. Where “and” joins values, the source holds several entries; their conditions need not be identical. Identical values can stand only once.

What was measured:
in vitro = in vitro ADME; settings: microsomes
Procedure: (§1) Additionally, an initial absorption, distribution, metabolism, and excretion (ADME) profile of the compound series was performed (Table 4).

physchem = type: physicochemical; settings: for logD: pH 7.4; for solubility kinetic: pH 7.4, aqueous buffer, kinetic from dmso stock
Procedure: as §1

NRP-1/VEGF-A interaction [1] = biological target: T1, NRP-1/VEGF-A interaction (Homo sapiens, UniProt O14786); test: ELISA-based NRP1-VEGF-A165 protein binding assay (concentration-response, IC50); settings: 20 nM biotinylated hVEGF-A165 with 4 μg/ml heparin, n=3, read-out: Calculated IC50 values of inhibiting the NRP-1/VEGF-A interaction
T1 construct: coated with the extracellular domain of human NRP-1 (containing the a1a2 and the b1b2 regions); purchased Fisher, Hampton, NH 50-101-8343
T1 sequence (O14786 22-856 limits assumed): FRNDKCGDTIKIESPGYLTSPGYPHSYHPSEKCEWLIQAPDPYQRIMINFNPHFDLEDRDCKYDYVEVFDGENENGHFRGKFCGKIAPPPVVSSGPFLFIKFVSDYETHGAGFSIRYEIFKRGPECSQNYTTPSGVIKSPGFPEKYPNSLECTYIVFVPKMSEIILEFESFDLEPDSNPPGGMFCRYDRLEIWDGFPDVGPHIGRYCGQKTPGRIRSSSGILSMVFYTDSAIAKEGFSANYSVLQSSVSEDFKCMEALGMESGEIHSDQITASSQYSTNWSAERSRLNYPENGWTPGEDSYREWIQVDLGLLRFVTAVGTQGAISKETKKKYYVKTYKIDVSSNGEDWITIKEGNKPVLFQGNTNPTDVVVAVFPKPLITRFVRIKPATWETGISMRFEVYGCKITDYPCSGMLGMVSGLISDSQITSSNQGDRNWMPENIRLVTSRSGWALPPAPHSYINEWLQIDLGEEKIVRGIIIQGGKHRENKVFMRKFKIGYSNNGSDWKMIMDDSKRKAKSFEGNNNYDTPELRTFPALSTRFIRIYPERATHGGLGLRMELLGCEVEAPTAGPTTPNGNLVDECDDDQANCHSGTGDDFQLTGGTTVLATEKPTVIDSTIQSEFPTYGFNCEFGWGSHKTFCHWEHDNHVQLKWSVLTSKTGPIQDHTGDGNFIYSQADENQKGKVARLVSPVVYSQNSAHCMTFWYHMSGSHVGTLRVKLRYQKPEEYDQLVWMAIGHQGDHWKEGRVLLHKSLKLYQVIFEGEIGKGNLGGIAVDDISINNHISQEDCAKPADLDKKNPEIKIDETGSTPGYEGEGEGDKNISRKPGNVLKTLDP
Procedure: Plates (96-well, Nunc Maxisorp; Thermo Fisher Scientific, Waltham, MA, USA) were coated with human Neuropilin-1-Fc (200 ng per well, Cat #50-101-8343, Fisher, Hampton, NH) and incubated at 4° C. overnight. The following day, the plates were washed and blocked with 3% BSA in PBS to minimize non-specific adsorptive binding to the plates. EG00229 (Cat #6986, Tocris) or the indicated compounds were added at different concentrations and incubated for 30 min at room temperature prior to adding biotinylated human VEGF-A165 (Cat #BT10543-025, R&D systems) at 20 nM with 4 μg/ml of heparin. As a negative control, some wells received PBS containing 3% BSA and as a positive control only hVEGF-A165 was used. The plates were incubated at room temperature with shaking for 2 h. Next, the plates were washed with PBS 0.05% Tween to eliminate unbound protein. Bound biotinylated VEGF was detected by streptavidin-HRP (Cat #016-030-084, Jackson immunoResearch). Tetramethylbenzidine (Cat #DY999, R&D Systems, St. Louis, MO) was used as the colorimetric substrate. The optical density of each well was determined immediately, using a microplate reader (Multiskan Ascent; Thermo Fisher Scientific) set to 450 nm with a correction wavelength of 570 nm. Percentage of inhibition was calculated by the following formula: […]
where S is the optical density measured in the wells with the compounds, N is the optical density measured in the negative control wells and P is the optical density in the positive control wells. The IC50 was calculated using a non-linear regression function with GraphPad Prism Version 9. The data are presented as log (inhibitor) [M] versus normalized response-variable slope. Data are the means±S.E.M. of three independent experiments.
Finally, the ability of the compounds to interfere with the NRP-1NEGF-A interaction was evaluated using an enzyme linked immunosorbent assay (ELISA), as previously described (Moutal, et al., Pain 2021, 12(1), 243-252). Plates were coated with the extracellular domain of human NRP-1 (containing the a1a2 and the b1b2 regions) and the compounds were added to disrupt the NRP-1NEGF-A interaction. The biotinylated human VEGF-A used in the experiments described above (Moutal, et al., Pain 2021, 12(1), 243-252) was discontinued. For the instant studies, biotinylated hVEGF-A (Cat #BT10543-025, R&D systems) was used. Because of that, the known NRP-1 antagonist EG00229 and compound 4 from the above series of inhibitors (Moutal, et al., Pain 2021, 12(1), 243-252) were also tested in the instant studies.

HepG2 cells = test: Cell proliferation and cytotoxicity in HepG2 cells (CellTiterGlo); type: cell-based; settings: Homo sapiens, 48 h
Procedure: as §1

NRP-1/VEGF-A interaction [2] = biological target: T1, NRP-1/VEGF-A interaction; test: ELISA-based NRP1-VEGF-A165 protein binding assay (single concentration); settings: compounds 12.5 μM (Spike S1 100 nM), biotinylated VEGF-A165 10 nM; ± standard error of the mean, n = 11
VSV-eGFP-SARS-CoV-2 = type: cell-based
pY1175 VEGFR2 = test: In cell Western for detecting inhibition of VEGFR2 activation by VEGF-A165; type: cell-based, mouse; settings: CAD cells, compounds 12.5 μM or Spike 100 nM, 1 nM VEGF-A165, 1 hour

| Compound | half-life (in vitro; human) [min] | half-life (in vitro; mouse) [min] | half-life (in vitro; rat) [min] | logD (physchem) | solubility kinetic (physchem) [µM] | IC50 (NRP-1/VEGF-A interaction [1]) | IC50 (HepG2 cells) [µM] | Rel % inhibition (NRP-1/VEGF-A interaction [2]) [%] | inhibition of VSV-eGFP-SARS-CoV-2 antiviral activity (VSV-eGFP-SARS-CoV-2) | inhibition of VEGF-A stimulated increased phosphorylation of VEGFR2 (pY1175) (pY1175 VEGFR2) |
| --- | --- | --- | --- | --- | --- | --- | --- | --- | --- | --- |
| COc1cccc(-c2nc(Nc3c[nH]c(C(=O)O)c3)cc(=O)[nH]2)c1 [1g′, 4-[[2-(3-methoxyphenyl)-6-oxo-1H-pyrimidin-4-yl]amino]-1H-pyrrole-2-carboxylic acid] | > 120 | > 120 | > 120 | -0.62 | > 200 | 28.2 µM | > 30 |  |  |  |
| COc1cccc(-c2cc(=O)[nH]c(Nc3c[nH]c(C(=O)O)c3)n2)c1 [1g′-iso, 4-[[4-(3-methoxyphenyl)-6-oxo-1H-pyrimidin-2-yl]amino]-1H-pyrrole-2-carboxylic acid] | > 120 | > 120 | > 120 | -0.38 | > 200 | 32 µM | > 30 |  |  |  |
| COc1cccc(-c2cc(=O)[nH]c(Nc3ccccc3)n2)c1 [Compound 1] |  |  |  |  |  |  |  | 56 ± 7 |  |  |
| COc1cccc(-c2cc(=O)[nH]c(Nc3ccnc(N)c3)n2)c1 [Compound 1a, 2-[(2-amino-4-pyridyl)amino]-4-(3-methoxyphenyl)-1H-pyrimidin-6-one] | > 120 | 29.3 | 3.8 | 1.64 | 184 (≈ 56.9 µg/mL) | 214 µM | > 30 |  |  |  |
| COc1cccc(-c2nc(Nc3ccccc3)cc(=O)[nH]2)c1 [Compound 1b, 4-anilino-2-(3-methoxyphenyl)-1H-pyrimidin-6-one] | 14.8 | 9.4 | 8.3 | 3.78 | 3.5 (≈ 1.03 µg/mL) | 112 µM | > 30 |  |  |  |
| COc1cccc(-c2cc(Nc3ccccc3)[nH]c(=O)n2)c1 [Compound 1b-iso, 6-anilino-4-(3-methoxyphenyl)-1H-pyrimidin-2-one] | 102 | 22 | 4.4 | 2.78 | 4.7 (≈ 1.38 µg/mL) | 105 µM | > 30 |  |  |  |
| COc1cccc(-c2cc(=O)[nH]c(Nc3cccc(O)c3)n2)c1 [Compound 1c, 2-(3-hydroxyanilino)-4-(3-methoxyphenyl)-1H-pyrimidin-6-one] | > 120 | 71.7 | 4.4 | 2.49 | 14.2 (≈ 4.39 µg/mL) | 23.1 µM | > 30 |  |  |  |
| COc1cc(-c2cc(=O)[nH]c(Nc3ccc(Cl)c(O)c3)n2)ccn1 [Compound 1d, 2-(4-chloro-3-hydroxy-anilino)-4-(2-methoxy-4-pyridyl)-1H-pyrimidin-6-one] | 28.4 | 59.7 | 14.1 | 3.15 | 19.4 (≈ 6.69 µg/mL) | 134 µM | > 30 |  |  |  |
| COc1cc(-c2cc(=O)[nH]c(Nc3ccccc3)n2)ccn1 [Compound 1s, 2-anilino-4-(2-methoxy-4-pyridyl)-1H-pyrimidin-6-one] | 16.6 | 13.6 | 9.4 | 3.15 | 11.5 (≈ 3.38 µg/mL) | 1030 µM | > 30 |  |  |  |
| COc1cccc(-c2cc(=O)[nH]c(Nc3cc[nH]n3)n2)c1 [Compound 1t, 4-(3-methoxyphenyl)-2-(1H-pyrazol-3-ylamino)-1H-pyrimidin-6-one] | 64.5 | 4.5 | 12.7 | 2.67 | 48.7 (≈ 13.8 µg/mL) | 128 µM | > 30 |  |  |  |
| COc1cccc(-c2cc(=O)[nH]c(Nc3ccccc3)n2)n1 [Compound 1u, 2-anilino-4-(6-methoxy-2-pyridyl)-1H-pyrimidin-6-one] | 18.9 | 9.6 | 3.9 | 3.51 | 10.4 (≈ 3.06 µg/mL) | 369 µM | > 30 |  |  |  |
| COc1ccc(C)c(-c2cc(=O)[nH]c(Nc3ccccc3)n2)c1 [Compound 1v, 2-anilino-4-(5-methoxy-2-methyl-phenyl)-1H-pyrimidin-6-one] | > 120 | > 120 | 4.7 | 2.91 | 8 (≈ 2.46 µg/mL) |  | > 30 |  |  |  |
| CC(C)Cc1cc(C(=O)NCC2CCOC2)nc(=O)[nH]1 (stereo not shown) [Compound 2] |  |  |  |  |  |  |  | 59 ± 11 |  |  |
| CC(C)Cc1cc(C(=O)NCCO)nc(=O)[nH]1 [Compound 2a, N-(2-hydroxyethyl)-6-isobutyl-2-oxo-1H-pyrimidine-4-carboxamide] | > 120 | > 120 | > 120 | 0.02 | > 200 | ≤ 32 µM and 1.8 µM | > 30 |  |  |  |
| COc1ccccc1Nc1nc(-c2cnc(N3CCCC3)nc2C)cc(=O)[nH]1 [Compound 5] |  |  |  |  |  |  |  | 42 ± 10 |  |  |
| COc1ccccc1Nc1nncc(=O)[nH]1 [Compound 7] |  |  |  |  |  |  |  | 18 ± 19 |  |  |
| O=c1cnnc(Nc2ccccc2O)[nH]1 [Compound 8] |  |  |  |  |  |  |  | 24 ± 16 |  |  |
| Cc1cc(CN(C)Cc2cc(=O)[nH]c(=O)[nH]2)no1 [Compound 9] |  |  |  |  |  |  |  | 43 ± 8 |  |  |
| O=c1cc(Nc2cccc(O)c2)[nH]c(=O)[nH]1 [Compound 9c, 6-(3-hydroxyanilino)-1H-pyrimidine-2,4-dione] | > 120 | > 120 | > 120 | 0.38 | > 200 | 469 µM | > 30 |  |  |  |
| O=C(O)Cc1cnc(-c2cccnc2)[nH]c1=O [Compound 11] |  |  |  |  |  |  |  | 43 ± 16 |  |  |
| O=C(/C=C/c1ccc(O)c(O)c1)O[C@@H](C(=O)O)[C@@H](O)C(=O)O [Compound 17] |  |  |  |  |  |  |  | 12 ± 16 | ~15% |  |
| NC(N)=NCCC[C@H](NC(=O)c1sccc1NS(=O)(=O)c1cccc2nsnc12)C(=O)O [EG00229, reference compound] |  |  |  |  |  | 1370 µM |  | 33 ± 10 | ineffective | blocked |
